# Test results from paper PMC4561207 (Child's nervous system : ChNS : official journal of the …, 2015).
# What was measured:
# [1] = adults treated with a 5 mg flat dose; cited from earlier work
# primary CNS tumor = test: MR diffusion and permeability perfusion imaging of tumor; format: in vivo, human
# [2] = Steady-state plasma pharmacokinetics, day 28 of course 1; format: in vivo, human
structure (smiles),measurement,setting,value
"COc1cc2c(Oc3ccc4[nH]c(C)cc4c3F)ncnc2cc1OCCCN1CCCC1 [cediranib, Cediranib]",steady-state systemic exposure (AUC),[1],226 ng·h/mL
same,change in two dimensional mean permeability values,"primary CNS tumor; baseline to course 1 day 7–14, p=0.0469",suggested a decrease from baseline
same,change in 2D permeability and 3D permeability values,"primary CNS tumor; baseline to end of course 2, p=0.0078 each",suggested a decrease from baseline
same,"Css,min, median","[2]; 20mg/m^2 QD, day 28 pre-dose trough",11.5 ng/mL
same,"Css,max, median","[2]; day 28, steady state, plasma",48.0 ng/mL
same,Tmax,"[2]; human, plasma, oral",2 to 6 h
same,AUC,"[2]; human, plasma, oral, 32 mg/m2, steady-state AUC0—tlast, 32mg/m^2 QD, n=2",892 ng·h/mL
same,AUC,"[2]; human, plasma, oral, 32 mg/m2, steady-state AUC0—tlast, range, 32mg/m^2 QD, n=2",522 to 1260 ng·h/mL
same,AUC,"[2]; human, plasma, oral, 40 mg/m2, steady-state AUC0—tlast, 40mg/m^2 QD, n=1",770 ng·h/mL
